The IC50 is the concentration that gives 50% inhibition.

The assay addresses T1, receptor tyrosine kinase EGFR (Homo sapiens, UniProt P00533).
T1 construct: purchased Shanghai 3bio Technology Co., Ltd. Lot No. 4018780925
The assay can be described thus: Inhibitory effect on receptor tyrosine kinase EGFR (ELISA, Poly(Glu, Tyr)4:1, PY99 antibody). Particulars: ATP 4 μM, 1 hour at 37° C. Type of assay: biochemical. As to the method:
Poly(Glu, Tyr)4:1 was diluted into 100 μg/ml by PBS without potassium. Enzyme label plate was coated with 37 μl/well at 37° C. overnight,
The liquid in the wells was removed. The plate was rinsed by T-PBS for 5 minutes, and dried at 37° C. after repeated 3 times.
The testing sample was diluted to the concentration concerned by reaction buffer solution, and added into the wells of the coated enzyme label plate. The concentration diluted should realize 1.0000 μg/ml, 0.1250 μg/ml, 0.0156 μg/ml, 0.00195 μg/ml and 0.00024 μg/ml in the 100 μl reaction.
Adding in ATP solution (4 μM of final concentration) diluted by reaction buffer solution,
Finally, the tyrosine kinase diluted by reaction buffer solution was added, and forming the reaction with 100 μl total volume.
Meanwhile, negative control wells and enzyme-free control wells were prepared. The reaction was kept in the dark wet box for 1 hour at 37° C. The plate was rinsed by T-PBS for three times after the reaction ended, and blocked by 1% BSA […] for 30 min, and then, PY99 antibody (1:1000 diluted by 0.05% PBST with 1% BSA) was added in 100 μl/well. After incubated at 37° C. for 30 minutes, the plate was rinsed by T-PBS for three times, and the goat anti-mouse IgG marked with HRP (1 mg/ml 1:1000 diluted by 0.05% PBST with 1% BSA) was then added in 100 μl/well. After incubated at 37° C. for 30 minutes, the plate was rinsed by T-PBS for three times.
Colorimetric solution OPD was added in 100 μl/well for 20 minutes' reaction in the dark side at the room temperature. Colorimetric substrate solution OPD was the solution of 0.1 mol/L citric acid-disodium hydrogen phosphate buffer (pH 5.0) with 20 mmol/L OPD and 12 mmol/L H2O2 (freshly prepared when using).
50 μl of 2M H2SO4 (2 mol/L sulfuric acid containing 0.1 mol/L sodium sulfate) was added in to terminate the reaction, and the A492 value was read with adjustable wavelength micro late enzyme-labeling instrument VERSAmax.
The inhibition rate of samples is calculated by the following formula: […]
Background: ELISA stands for enzyme-linked immunosorbent assay.

T1 sequence (P00533 25-1210): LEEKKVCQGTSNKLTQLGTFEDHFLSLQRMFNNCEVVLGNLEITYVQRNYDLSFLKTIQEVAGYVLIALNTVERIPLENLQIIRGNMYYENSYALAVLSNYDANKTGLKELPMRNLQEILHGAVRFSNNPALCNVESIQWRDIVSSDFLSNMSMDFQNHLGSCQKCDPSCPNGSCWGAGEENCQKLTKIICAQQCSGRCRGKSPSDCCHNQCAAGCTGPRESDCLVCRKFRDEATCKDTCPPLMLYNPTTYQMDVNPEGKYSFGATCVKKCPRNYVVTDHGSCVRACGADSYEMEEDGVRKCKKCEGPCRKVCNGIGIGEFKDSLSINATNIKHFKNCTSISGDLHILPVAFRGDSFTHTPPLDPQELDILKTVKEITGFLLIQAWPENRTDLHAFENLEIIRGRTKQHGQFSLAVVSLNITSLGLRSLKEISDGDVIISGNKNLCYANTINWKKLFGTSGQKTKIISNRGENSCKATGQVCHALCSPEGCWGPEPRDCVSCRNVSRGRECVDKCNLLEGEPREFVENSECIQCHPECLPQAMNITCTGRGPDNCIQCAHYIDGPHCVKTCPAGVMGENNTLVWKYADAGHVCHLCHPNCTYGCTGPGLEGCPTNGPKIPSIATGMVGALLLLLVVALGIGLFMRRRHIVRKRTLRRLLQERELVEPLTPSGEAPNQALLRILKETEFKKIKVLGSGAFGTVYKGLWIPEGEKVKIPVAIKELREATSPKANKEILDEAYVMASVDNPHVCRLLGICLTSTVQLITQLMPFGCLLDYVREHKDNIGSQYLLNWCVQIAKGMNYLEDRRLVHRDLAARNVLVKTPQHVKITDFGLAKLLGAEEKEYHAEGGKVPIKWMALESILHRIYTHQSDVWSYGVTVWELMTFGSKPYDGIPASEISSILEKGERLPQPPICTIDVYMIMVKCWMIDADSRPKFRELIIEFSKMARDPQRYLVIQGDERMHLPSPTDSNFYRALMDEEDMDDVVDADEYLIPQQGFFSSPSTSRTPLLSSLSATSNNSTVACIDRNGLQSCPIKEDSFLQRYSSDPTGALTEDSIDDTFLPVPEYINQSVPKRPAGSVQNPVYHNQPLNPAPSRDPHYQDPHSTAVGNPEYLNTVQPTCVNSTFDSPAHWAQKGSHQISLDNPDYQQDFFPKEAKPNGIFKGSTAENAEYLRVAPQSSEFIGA

`C#Cc1cccc(Nc2ncnc3cc(OC)c(OCCCN4CCC5(CCN(C)C5=O)C4)cc23)c1` (stereo not shown) [Example 71, 4-(3′-ethynylphenylamino)-6-[3-(2-methyl-2,7-diazaspiro[4.4]-nonane-1-ketone-7-yl)-propoxy]-7-methoxyquinazoline] showed an IC50 of 10 to 100 nM.

Molecule `COc1cc2ncnc(Nc3cccc(Cl)c3F)c2cc1OCCCN1CCC2(CC1)CC(=O)N(C)C2` [Example 31, 4-(3′-chloro-2′-fluorophenylamino)-6-[3-(2-methyl-2,8-diazaspiro[4.5]decane-3-ketone-8-yl)-propoxy]-7-methoxyquinazoline] returned a half-maximal inhibitory concentration (IC50) of 10 to 100 nM.

Turning to `COc1cc2ncnc(Nc3ccc(F)c(Cl)c3)c2cc1OCCN1CC2(CCOCC2)C1` [Example 53, 4-(3′-chloro-4′-fluorophenylamino)-6-[3-(7-oxa-2-azaspiro[3.5]nonane-2-yl)-oxethyl]-7-methoxyquinazoline], the IC50 lay in the range of 10 to 100 nM.

Turning to `COc1cc2ncnc(Nc3ccc(F)c(Cl)c3)c2cc1OCCN1CC2(CNC(=O)O2)C1` [Example 60, 4-(3′-chloro-4′-fluorophenylamino)-6-[2-(5-oxa-2,7-diazaspiro[3.4]octane-6-ketone-2-yl)-oxethyl]-7-methoxyquinazoline], the IC50 was in the range of 100 to 1000 nM.

`COc1cc2ncnc(Nc3ccc(F)c(Cl)c3)c2cc1OCCCN1CC2(CNC(=O)C2)C1` [Example 86, 4-(3′-chloro-4′-fluorophenylamino)-6-[3-(2,6-diazaspiro[3.4]octane-7-ketone-2-yl)-propoxy]-7-methoxyquinazoline] returned a concentration for half-maximal inhibition (IC50) of 10 to 100 nM.

`[2H]C([2H])([2H])Oc1cc2ncnc(Nc3ccc(F)c(Cl)c3)c2cc1OCCCN1CC2(C1)CN(C)C(=O)O2` [Example 98, 4-(3′-chloro-4′-fluorophenylamino)-6-[3-(7-methyl-5-oxa-2,7-diazaspiro[3.4]octane-6-ketone-2-yl)-propoxy]-7-deuterated methoxyquinazoline]: the IC50 lay within 0.1 to 10 nM.

Molecule `COc1cc2ncnc(Nc3ccc(F)c(Cl)c3)c2cc1OCCCN1CCC2(CC1)CC(=O)N(C)C2` [Example 83, 4-(3′-chloro-4′-fluorophenylamino)-6-[3-(2-methyl-2,8-diazaspiro[4.5]decane-3-ketone-8-yl)-propoxy]-7-methoxyquinazoline] showed a concentration for half-maximal inhibition (IC50) of 0.1 to 10 nM.

Regarding `COc1cc2ncnc(Nc3cc(Cl)ccc3F)c2cc1OCCCN1CCC2(CCNC2=O)C1` (stereo not shown) [Example 22, 4-(5′-chloro-2′-fluorophenylamino)-6-[3-(2,7-diazaspiro[4.4]nonane-1-ketone-7-yl)-propoxy]-7-methoxyquinazoline], the IC50 was in the range of 10 to 100 nM.

`C#Cc1cccc(Nc2ncnc3cc(OC)c(OCCCN4CCC5(CCNC5=O)C4)cc23)c1` (stereo not shown) [Example 70, 4-(3′-ethynylphenylamino)-6-[3-(2,7-diazaspiro[4.4]-nonane-1-ketone-7-yl)-propoxy]-7-methoxyquinazoline] came in with a concentration for half-maximal inhibition (IC50) of 10 to 100 nM.

`COc1cc2ncnc(Nc3ccc(F)c(Cl)c3)c2cc1OCCCN1CCC2(CCN(C)C2)C1` (stereo not shown) [Example 76, 4-(3′-chloro-4′-fluorophenylamino)-6-[3-(7-methyl-2,7-diazaspiro[4.4]nonane-2-yl)-propoxy]-7-methoxyquinazoline] registered a half-inhibitory concentration (IC50) of 10 to 100 nM.

The molecule `COc1cc2ncnc(Nc3cccc(Cl)c3F)c2cc1OCCCN1CCC2(CCN(C)C2=O)C1` (stereo not shown) [Example 30, 4-(3′-chloro-2′-fluorophenylamino)-6-[3-(2-methyl-2,7-diazaspiro[4.4]nonane-1-ketone-7-yl)-propoxy]-7-methoxyquinazoline] showed a half-inhibitory concentration (IC50) of 10 to 100 nM.

In turn, `COc1cc2ncnc(Nc3cc(Cl)ccc3F)c2cc1OCCCN1CCC2(CCN(C)C2=O)C1` (stereo not shown) [Example 23, 4-(5′-chloro-2′-fluorophenylamino)-6-[3-(2-methyl-2,7-diazaspiro[4.4]nonane-1-ketone-7-yl)-propoxy]-7-methoxyquinazoline] returned an IC50 of 10 to 100 nM.

Molecule `COc1cc2ncnc(Nc3ccc(F)c(Cl)c3)c2cc1OCCN1CCC2(CC1)CNC(=O)O2` [Example 58, 4-(3′-chloro-4′-fluorophenylamino)-6-[2-(1-oxa-3,8-diazaspiro[4.5]decane-2-ketone-8-yl)-oxethyl]-7-methoxyquinazoline] registered an IC50 of 100 to 1000 nM.

Take `C#Cc1cccc(Nc2ncnc3cc(OC)c(OCCCN4CC[C@H]5OCC[C@H]54)cc23)c1` (relative stereo) [Example 50, 4-(3′-ethynylphenylamino)-6-[3-(cis-hexahydrofuro[3,2-b]pyrrole-4-yl)-propoxy]-7-methoxyquinazoline]: the IC50 lay in the range of 0.1 to 10 nM.

Take `COc1cc2ncnc(Nc3cccc(Cl)c3F)c2cc1OCCCN1CCC2(C1)CN(C)C(=O)O2` (stereo not shown) [Example 35, 4-(3′-chloro-2′-fluorophenylamino)-6-[3-(3-methyl-1-oxa-3,7-diazaspiro[4.4]nonane-2-ketone-7-yl)-propoxy]-7-methoxycquinazoline]: the 50% inhibitory concentration (IC50) was in the range of 0.1 to 10 nM.

For `C#Cc1cccc(Nc2ncnc3cc(OC)c(OCCCN4CC5(CCOCC5)C4)cc23)c1` [Example 39, 4-(3′-ethynylphenylamino)-6-[3-(7-oxa-2-azaspiro[3.5]nonane-2-yl)-propoxy]-7-methoxyquinazoline], the IC50 lay in the range of 10 to 100 nM.

Molecule `COc1cc2ncnc(Nc3cccc(Cl)c3F)c2cc1OCCCN1CC2(CNC(=O)C2)C1` [Example 33] gave an IC50 of 10 to 100 nM.

`COc1cc2ncnc(Nc3cc(Cl)ccc3F)c2cc1OCCCN1CCC2(CC1)CNC(=O)C2` [Example 21, 4-(5′-chloro-2′-fluorophenylamino)-6-[3-(2,8-diazaspiro[4.5]decyl-3-ketone-8-yl)-propoxy]-7-methoxyquinazoline] came in with an IC50 of 10 to 100 nM.

In turn, `C#Cc1cccc(Nc2ncnc3cc(OC)c(OCCCN4CCC5(CCNC5=O)CC4)cc23)c1` [Example 72, 4-(3′-ethynylphenylamino)-6-[3-(2,8-diazaspiro[4.5]decane-1-ketone-8-yl)-propoxy]-7-methoxyquinazoline] yielded an IC50 of 10 to 100 nM.

`COc1cc2ncnc(Nc3cc(Cl)ccc3F)c2cc1OCCCN1CC2(CCOCC2)C1` [Example 18, 4-(5′-chloro-2′-fluorophenylamino)-6-[3-(7-oxa-2-azaspiro[3.5]-nonane-2-yl)-propoxy]-7-methoxyquinazoline] returned an IC50 of 10 to 100 nM.

`C#Cc1cccc(Nc2ncnc3cc(OC)c(OCCCN4CCC5(C4)CN(C)C(=O)O5)cc23)c1` (stereo not shown) [Example 47, 4-(3′-ethynylphenylamino)-6-[3-(3-methyl-1-oxa-3,7-diazaspiro[4.4]nonane-2-ketone-7-yl)-propoxy]-7-methoxyquinazoline] gave an IC50 of 10 to 100 nM.

As to `COc1cc2ncnc(Nc3cc(Cl)ccc3F)c2cc1OCCCN1CCC2(CCN(C(C)=O)C2)C1` (stereo not shown) [Example 19, 4-(5′-chloro-2′-fluorophenylamino)-6-[3-(7-acetyl-2,7-diazaspiro[4.4]-nonane-2-yl)-propoxy]-7-methoxyquinazoline], the 50% inhibitory concentration (IC50) is 10 to 100 nM.

`COc1cc2ncnc(Nc3ccc(F)c(Cl)c3)c2cc1OCCCN1CCC2(CCN(C)C2=O)C1` (stereo not shown) [Example 81, 4-(3′-chloro-4′-fluorophenylamino)-6-[3-(2-methyl-2,7-diazaspiro[4.4]-nonane-1-ketone-7-yl)-propoxy]-7-methoxyquinazoline] displayed an IC50 of 10 to 100 nM.

In turn, `COc1cc2ncnc(Nc3ccc(F)c(Cl)c3)c2cc1OCCCN1CCC2(CCNC2=O)CC1` [Example 82, 4-(3′-chloro-4′-fluorophenylamino)-6-[3-(2,8-diazaspiro[4.5]decane-1-ketone-8-yl)-propoxy]-7-methoxyquinazoline] displayed an IC50 of 10 to 100 nM.

For `COc1cc2ncnc(Nc3cccc(Cl)c3F)c2cc1OCCCN1CCC2(CCC(=O)N2)CC1` [Example 32, 4-(3′-chloro-2′-fluorophenylamino)-6-[3-(1,8-diazaspiro[4.5]decane-2-ketone-8-yl)-propoxy]-7-methoxyquinazoline], the IC50 lay in the range of 10 to 100 nM.

Consider `COc1cc2ncnc(Nc3ccc(F)c(Cl)c3)c2cc1OCCN1CCC2(CC1)CC(=O)N(C)C2` [Example 56, 4-(3′-chloro-4′-fluorophenylamino)-6-[2-(2-methyl-2,8-diazaspiro[4.5]decane-2-ketone-8-yl)-oxethyl]-7-methoxyquinazoline], for which the half-inhibitory concentration (IC50) was more than 1000 nM.

Molecule `COc1cc2ncnc(Nc3cc(Cl)ccc3F)c2cc1OCCCN1CCC2(CCOC2)C1` (stereo not shown) [Example 15, 4-(5′-chloro-2′-fluorophenylamino)-6-[3-(2-oxa-7-azaspiro[4.4]nonane-7-yl)-propoxy]-7-methoxyquinazoline] yielded a half-inhibitory concentration (IC50) of 10 to 100 nM.

For `COc1cc2ncnc(Nc3cccc(Cl)c3F)c2cc1OCCCN1CCC2(CC1)CNC(=O)O2` [Example 34, 4-(3′-chloro-2′-fluorophenylamino)-6-[3-(1-oxa-3,8-diazaspiro[4.5]decane-2-ketone-8-yl)-propoxy]-7-methoxyquinazoline], the half-maximal inhibitory concentration (IC50) was in the range of 0.1 to 10 nM.

These data come from patent publication US9546179B2, “Heterocycle amido alkyloxy substituted quinazoline derivative and use thereof” (priority 2011, dated 2017).
